In patent publication US11040975B2, “Carbocyclic nucleoside reverse transcriptase inhibitors” (Merck Sharp & Dohme Corp., priority 2017, dated 2021):
Read-outs that look alike come from different tables or passages of the source.

Tested on: HIV-1 (H9IIIB virus)
Assay: Viking assay: antiviral potency in a multiple round HIV-1 infection assay (MT4-GFP cells)
Format: cell-based
Details: 10% normal human serum, inhibition of reproductive ratio R0, read-out: Viking, IC50 (10% NHS)
Procedure: Assessing Antiviral Potency in a Multiple Round HIV-1 Infection Assay.
HIV-1 replication was monitored using MT4-gag-GFP clone D3 (hereafter designate MT4-GFP), which are MT-4 cells modified to harbor a GFP reporter gene, the expression of which is dependent on the HIV-1 expressed proteins tat and rev. Productive infection of an MT4-GFP cell with HIV-1 results in GFP expression approximately 24h post-infection.
MT4-GFP cells were maintained at 37° C./5% CO2/90% relative humidity in RPMI 1640 supplemented with 10% fetal bovine serum, 100 U/mL penicillin/streptomycin, and 400 μg/mL G418 to maintain the reporter gene. For infections, MT4-GFP cells were placed in the same medium lacking G418 and infected overnight with H9IIIB virus at an approximate multiplicity of infection of 0.01 in the same incubation conditions. Cells were then washed and re-suspended in either RPMI 1640 containing 10% or 50% normal human serum at 1.6×10^5 cells/mL. Compound plates were prepared by dispensing compounds dissolved in DMSO into wells of 384 well poly D lysine-coated plates ([…]) using an ECHO acoustic dispenser. Each compound was tested in a 10 point serial 3-fold dilution (typical final concentrations: 8.4 μM-0.43 nM). Controls included no inhibitor (DMSO only) and a combination of three antiviral agents (efavirenz, indinavir, and an integrase strand transfer inhibitor at final concentrations of 4 μM each). Cells were added (50 μL/well) to compound plates and the infected cells were maintained at 37° C./5% CO2/90% relative humidity.
Infected cells were quantified at two time points, ˜48h and ˜72h post-infection, by counting the number of green cells in each well using an Acumen eX3 scanner. The increase in the number of green cells over ˜24h period gives the reproductive ratio, R0, which is typically 5-15 and has been shown experimentally to be in logarithmic phase (data not shown). Inhibition of R0 is calculated for each well, and IC50s determined by non-linear 4-parameter curve fitting.

[1] = Human immunodeficiency virus 1, MT4-GFP cells

Compound	IC50 [1] [µM]	IC50 (MT4-GFP cells) [µM]
C#C[C@]1(CO)C[C@@H](n2ccc3c(N)nc(Cl)nc32)C[C@@H]1O (racemic) [Example (+/−) 22, (1S,2S,4R)-4-(4-amino-2-chloro-7H-pyrrolo[2,3-d]pyrimidin-7-yl)-2-ethynyl-2-(hydroxymethyl)cyclopentan-1-ol and (1R,2R,4S)-4-(4-amino-2-chloro-7H-pyrrolo[2,3-d]pyrimidin-7-yl)-2-ethynyl-2-(hydroxymethyl)cyclopentan-1-ol]	22.2	
N#C[C@@]1(CO)C[C@H](n2cnc3c(N)nc(F)nc32)C[C@H]1O (single isomer, unassigned) [Example 73B, (1S,2S,4R)-4-(6-amino-2-fluoro-9H-purin-9-yl)-2-hydroxy-1-(hydroxymethyl)cyclopentane-1-carbonitrile or (1R,2R,4S)-4-(6-amino-2-fluoro-9H-purin-9-yl)-2-hydroxy-1-(hydroxymethyl)cyclopentane-1-carbonitrile]	11	
C#C[C@]1(CO)C[C@@H](n2ccc(N)nc2=O)C[C@@H]1O (racemic) [Example (+/−) 38, 4-amino-1-((1R,3S,4S)-3-ethynyl-4-hydroxy-3-(hydroxymethyl)cyclopentyl)pyrimidin-2(1H)-one and 4-amino-1-((1S,3R,4R)-3-ethynyl-4-hydroxy-3-(hydroxymethyl)cyclopentyl)pyrimidin-2(1H)-one]	> 42	
C#C[C@]1(CO)C[C@@H](n2ccc3c(Cl)nc(Cl)nc32)C[C@@H]1O (racemic) [Example (+/−) 21, (1S,2S,4R)-4-(2,4-dichloro-7H-pyrrol[2,3-d]pyrimidin-7-yl)-2-ethynyl-2-(hydroxymethyl)cyclopentan-1-ol and (1R,2R,4S)-4-(2,4-dichloro-7H-pyrrolo[2,3-d]pyrimidin-7-yl)-2-ethynyl-2-(hydroxymethyl)cyclopentan-1-ol]	> 42	
C#C[C@]1(CO)C[C@@H](n2cnc3c(OCC)nc(N)nc32)C[C@@H]1O (racemic) [Example (+/−) 30, (1S,2S,4R)-4-(2-amino-6-ethoxy-9H-purin-9-yl)-2-ethynyl-2-(hydroxymethyl)cyclopentan-1-ol and (1R,2R,4S)-4-(2-amino-6-ethoxy-9H-purin-9-yl)-2-ethynyl-2-(hydroxymethyl)cyclopentan-1-ol]	0.614	
C#C[C@]1(CO)C[C@@H](n2cnc3c(=O)[nH]c(N)nc32)C[C@@H]1O (single isomer, unassigned) [Example 26B, 2-amino-9-((1R,3S,4S)-3-ethynyl-4-hydroxy-3-(hydroxymethyl)cyclopentyl)-1,9-dihydro-6H-purin-6-one or 2-amino-9-((1S,3R,4R)-3-ethynyl-4-hydroxy-3-(hydroxymethyl)cyclopentyl)-1,9-dihydro-6H-purin-6-one]		0.142
C#C[C@]1(CO)C[C@@H](n2cnc3c(Cl)nc(F)nc32)C[C@@H]1O (racemic) [Example (+/−) 12, (1S,2S,4R)-4-(6-chloro-2-fluoro-9H-purin-9-yl)-2-ethynyl-2-(hydroxymethyl)cyclopentan-1-ol and (1R,2R,4S)-4-(6-chloro-2-fluoro-9H-purin-9-yl)-2-ethynyl-2-(hydroxymethyl)cyclopentan-1-ol]	> 42	
N#C[C@]1(CO)C[C@@H](n2ccc(N)nc2=O)C[C@@H]1O (racemic) [Example (+/−) 65, (1S,2S,4R)-4-(4-amino-2-oxopyrimidin-1(2H)-yl)-2-hydroxy-1-(hydroxymethyl)cyclopentane-1-carbonitrile and (1R,2R,4S)-4-(4-amino-2-oxopyrimidin-1(2H)-yl)-2-hydroxy-1-(hydroxymethyl)cyclopentane-1-carbonitrile]	> 42	
C#C[C@]1(CO)C[C@@H](n2cc(C)c(=O)[nH]c2=O)C[C@@H]1O (racemic) [Example (+/−) 34, 1-((1R,3S,4S)-3-ethynyl-4-hydroxy-3-(hydroxymethyl)cyclopentyl)-5-methylpyrimidine-2,4(1H,3H)-dione and 1-((1S,3R,4R)-3-ethynyl-4-hydroxy-3-(hydroxymethyl)cyclopentyl)-5-methylpyrimidine-2,4(1H,3H)-dione]	> 42	
Cc1cn([C@H]2C[C@H](O)[C@@](C#N)(CO)C2)c(=O)[nH]c1=O (racemic) [Example (+/−) 69, (1S,2S,4R)-2-hydroxy-1-(hydroxymethyl)-4-(5-methyl-2,4-dioxo-3,4-dihydropyrimidin-1(2H)-yl)cyclopentane-1-carbonitrile and (1R,2R,4S)-2-hydroxy-1-(hydroxymethyl)-4-(5-methyl-2,4-dioxo-3,4-dihydropyrimidin-1(2H)-yl)cyclopentane-1-carbonitrile]	16	
C#C[C@]1(CO)C[C@@H](n2cnc3c(=O)[nH]c(N)nc32)C[C@@H]1O (racemic) [Example (+/−) 26, 2-amino-9-((1R,3S,4S)-3-ethynyl-4-hydroxy-3-(hydroxymethyl)cyclopentyl)-1,9-dihydro-6H-purin-6-one and 2-amino-9-((1S,3R,4R)-3-ethynyl-4-hydroxy-3-(hydroxymethyl)cyclopentyl)-1,9-dihydro-6H-purin-6-one]	0.195	
N#C[C@]1(CO)C[C@@H](n2cnc3c(=O)[nH]c(N)nc32)C[C@@H]1O (racemic) [Example (+/−) 61, (1S,2S,4R)-4-(2-amino-6-oxo-1,6-dihydro-9H-purin-9-yl)-2-hydroxy-1-(hydroxymethyl)cyclopentane-1-carbonitrile and (1R,2R,4S)-4-(2-amino-6-oxo-1,6-dihydro-9H-purin-9-yl)-2-hydroxy-1-(hydroxymethyl)cyclopentane-1-carbonitrile]	0.998	
N#C[C@]1(CO)C[C@@H](n2cnc3c(N)nc(F)nc32)C[C@@H]1O (single isomer, unassigned) [Example 73A, (1S,2S,4R)-4-(6-amino-2-fluoro-9H-purin-9-yl)-2-hydroxy-1-(hydroxymethyl)cyclopentane-1-carbonitrile or (1R,2R,4S)-4-(6-amino-2-fluoro-9H-purin-9-yl)-2-hydroxy-1-(hydroxymethyl)cyclopentane-1-carbonitrile]	> 42	
C#C[C@@]1(CO[P@@](=O)(N[C@@H](C)C(=O)OC(C)C)Oc2ccccc2)C[C@H](n2cnc3c(OCC)nc(N)nc32)C[C@H]1O (single isomer, unassigned) [Example 39A, Isopropyl ((S)-(((1S,2S,4R)-4-(2-amino-6-ethoxy-9H-purin-9-yl)-1-ethynyl-2-hydroxycyclopentyl)methoxy)(phenoxy)phosphoryl)-L-alaninate or Isopropyl ((S)-(((1R,2R,4S)-4-(2-amino-6-ethoxy-9H-purin-9-yl)-1-ethynyl-2-hydroxycyclopentyl)methoxy)(phenoxy)phosphoryl)-L-alaninate]	0.484	
C#C[C@]1(CO[P@@](=O)(N[C@@H](C)C(=O)OC(C)C)Oc2ccccc2)C[C@@H](n2cnc3c(OCC)nc(N)nc32)C[C@@H]1O (single isomer, unassigned) [Example 39B, Isopropyl ((S)-(((1S,2S,4R)-4-(2-amino-6-ethoxy-9H-purin-9-yl)-1-ethynyl-2-hydroxycyclopentyl)methoxy)(phenoxy)phosphoryl)-L-alaninate or Isopropyl ((S)-(((1R,2R,4S)-4-(2-amino-6-ethoxy-9H-purin-9-yl)-1-ethynyl-2-hydroxycyclopentyl)methoxy)(phenoxy)phosphoryl)-L-alaninate]	0.00593	
